Source: patent US20090053138A1, “Stabilized Aptamers to Platelet Derived Growth Factor and their Use as Oncology Therapeutics” (priority 2002, published 2009)
{PEG40k} = 40 kDa polyethylene glycol; [invdT] = inverted (3'-3') thymidine; [HEG] = hexaethylene glycol spacer

Columns and labels:
Lewis lung carcinoma = experiment: Mouse Lewis lung carcinoma model; conditions: scrambled aptamer 50 mg/kg
Description: A 1 mm^3 piece of Lewis lung carcinoma was implanted under the dorsal skin of wild-type C57BL/6 mice and allowed to grow. […] At the end of the seven day period, the mice were anesthetized, and the following tissues were fixed by vascular perfusion with 1% paraformaldehyde, removed and frozen for cryotstat sectioning: tumor (Lewis lung carcinoma), pancreas, liver, kidney, trachea, spleen, jejunum, and thyroid tissue. The resulting slides were stained with antibodies against various markers as described below.
Sections of tumors were cut (80 μm) and stained with either anti-CD31 or anti-α smooth muscle actin (“α-SMA”) antibodies. Digital fluorescence microscopic images were obtained for area density measurements by using a CoolCam low-light 3-chip RGB CCD camera. […] In addition, the tumors were imaged by confocal microscopy. […]
Sections of tumors were cut (80 μm) and stained with either anti-CD31 or anti-type IV collagen antibodies. Digital fluorescence microscopic images were obtained for area density measurements by using a CoolCam camera. […]
Pericyte expression was measured using the Cool Cam and confocal images were also taken.
The extent of pericyte colocalization with endothelial cells was then measured on digital Cool Cam images.
The extent of pericyte colocalization with endothelial cells was measured on digital CoolCam images. […]

PDGF BB [1] = target: T1, PDGF BB (Homo sapiens, UniProt P01127); experiment: Cell migration assay, RPE cells; assay type: cell-based; parameters: purchased PeproTech, Rocky Hill, N.J
T1 sequence (P01127 82-190 limits assumed): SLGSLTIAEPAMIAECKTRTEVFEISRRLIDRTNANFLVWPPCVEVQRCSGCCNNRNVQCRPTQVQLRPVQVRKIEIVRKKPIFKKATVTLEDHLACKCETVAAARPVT
Experimental: PDGF is a strong mitogen as well as a chemoattractant. […] In the cell migration assay 80,000 cells 3T3 rat fibroblasts (ATCC, Manassas, Va.) or RPE (retinal pigmented epithelial) cells (ATCC, Manassas, Va.) were plated per well into a 24 well plate with 8 micron filters (BD Biosciences, Discovery Labware, Bedford, Mass.). 0.5 ml DMEM/0.2% FCS was added to the top chamber and 0.8 ml DMEM/0.2% FCS was added to the bottom chamber. The system was equilibrated by incubating for 4 hours at 37 degrees celsius. Human PDGF-BB (PeproTech, Rocky Hill, N.J.) (for RPE cells) or rat PDGF-BB (PeproTech) (for 3T3 cells) was added to the bottom chamber (0 ng/ml-100 ng/ml final concentration). […] Cells were scraped off on the top of filter with a Q-tip. The cells that migrated to the bottom of the filter were fixed with a mixture of cold 50% Methanol/50% Acetone for 3 minutes.
Following incubation filters were washed with 1×PBS and stained with Giemsa Stain (Matheson Coleman and Bell) for 1-2 hours and migration was visualized by taking pictures on a Zeiss Axiovert 200M microscope.
The 96 well assay starts by bringing plates and reagents to room temperature. 150 ul of DMEM/0.2% FBS was added with or without chemoattractant to the wells of the feeder tray.
Following incubation, the migration chamber plate was removed and the non-migratory cells were discarded. The number of migratory cells was quantitated according to manufacturer's recommended instructions. In brief, media from the top side was removed by flipping out the remaining cell suspension, and was placed onto a new feeder tray that contains 150 ul of pre-warmed Cell Detachment Solution. This mixture was incubated for 30 minutes at 37 degrees celsius. CyQuant GR Dye 1:75 was diluted with 4× Lysis Buffer and 50 ul of the Lysis Buffer/Dye Solution was added to each well containing 150 ul of the solution containing migratory cells.

U87 glioblastoma cells = experiment: Clonogenic growth assay; assay type: cell-based
Experimental: U87 glioblastoma cells (ATCC) were grown in the presence or absence of mitogen as well as aptamer as shown in the panels. U87 cells were plated in DMEM/10% FBS to 50% confluency in 100 mm dishes. […] The addition of a final concentration of 50 ng/ml PDGF BB alone caused the appearance of highly connected three dimensional cell clusters. […] Thus, the aptamer blocks cell to cell adhesion of U87 cells which are known to have PDGF driven autocrine loops.

PDGF = experiment: PDGF-driven Elk Luciferase reporter gene assay; assay type: cell-based; conditions: PDGF 50 ng/ml, 3T3 cells
Experimental: 10,000 3T3 cells/well were plated in DMEM/10% FBS in a 96 well plate. They were transfected using FuGene (Roche, Indianapolis, Ind.) at 3:1 ratio with 5 ng of ELK-1 (Stratagene, La Jolla, Calif.) and 20 ng of pFR-Luciferase plasmids (Stratagene, La Jolla, Calif.). When PDGF is added at a final concentration of 50 ng/ml to 3T3 cells, an increase in the Luciferase signal can be observed which corresponds to the effect of the mitogen on the reporter gene. Steady Glo Luciferase assay (Promega, Madison, Wis.) was used to detect luciferase. […] (FIG. 17.)

[2] = tested on: LS174T colon cancer xenograft
Description: Experimental overview. Human HT-29 or LS174T colon cancer xenotransplants were established in athymic nude mice (Nu/Nu mice, Charles River Labs, Wilmington, Mass.) by injecting mice with 1×10^7 HT29 cells (ATCC, Manassas, Va.), or 2×10^6 LS174T cells (ATCC Manassas, Va.) sub-cutaneously and allowing the tumors to grow for 5 days. On day 5, two dimensional measurements of the established tumors were taken using a digital caliper. Once tumor measurements were taken, the mice were randomized into groups such that the average tumor size was the same in each group. […]
A third experiment (Experiment 3) was designed to test ARC308/irinotecan and GLEEVEC™/irinotecan dosing regimens in a colon cancer xenotransplant model using human colon carcinoma cell line LS174T (ATCC). […] ARC308 was dosed via intraperitoneal delivery at 50 mg/kg once daily, and GLEEVEC™ was dosed at 50 mg/kg once daily, Monday through Friday. ARC308 prevents PDGF-BB from binding the PDGF receptor; this molecule has a 30K PEG attached. […] The results are statistically significant (two tailed students T-test).
An efficacy analysis of three treatment groups in this study is shown in Table 10 in terms of log cell kill and log cell kill net. Log cell kill is the log(base10) of the number of tumor cells before treatment divided by the number of cells after treatment. […] A fourth experiment (Experiment 4) was designed to further test ARC308/irinotecan dosing regimens in a colon cancer xenotransplant model using human colon carcinoma cell line LS174T (ATCC). […]

PDGF BB [3] = target: T1, PDGF BB; conditions: in vivo, iv, 10 mg/kg
Experimental: As a secondary test of both the plasma pharmacokinetics and the in vivo bioactivity of ARC594 the competition binding assay was used to assay the same plasma samples used to generate the pharmacokinetic data. Serial 1:10 dilutions of plasma sample were prepared in phosphate-buffered saline (1×PBS) and mixed with a fixed concentration of ^32P-ARC594, then added to human PDGF-BB. The final concentration of PDGF in each assay was 0.1 nM, and the final concentration of ^32P-ARC594<0.1 nM. In this experiment, the plasma samples were analyzed by comparison with a standard curve generated with samples of known ARC594 concentrations in 1×PBS.

[4] = Pharmacokinetics of ARC126 5′ PEG conjugates in mice
Description: The pharmacokinetic (PK) data shown in FIG. 12A was subjected to non-compartmental analysis (NCA) using the industry-standard software package WinNonLin™ v.4.0 (Pharsight Corp., Mountain View, Calif.). […] The pharmacokinetic (PK) data shown in FIG. 12B was subjected to noncompartmental analysis (NCA) using the industry-standard software package WinNonLin™ v.4.0 (Pharsight Corp., Mountain View, Calif.).
The pharmacokinetic (PK) data shown in FIG. 12B was subjected to noncompartmental analysis (NCA) using the industry-standard software package WinNonLin™ v.4.0 (Pharsight Corp., Mountain View, Calif.).

[5] = 100 nM aptamer, 5 nM PDGF BB, 24 well format
[6] = IV administration at 10 mg/kg in mice

5′-(SEQ ID NO.4)-HEG-(SEQ ID NO:5)-HEG-(SEQ ID NO:6)-3 (chain 1 CAGCGUACG; chain 2 CGTACCGATUCA; chain 3 TGAAGCUG; HEG spacers joining pieces; synthetic aptamer; modified_base (4)..(4) cytidine is 2′-fluoro; modified_base (5)..(5) gm; modified_base (6)..(6) uridine is 2′-fluoro; modified_base (8)..(8) cytidine is 2′-fluoro; modified_base (9)..(9) gm; modified_base (7)..(7) gm; modified_base (10)..(10) uridine is 2′-fluoro; modified_base (11)..(11) cytidine is 2′-fluoro; modified_base (12)..(12) adenosine is 2′-O-Methyl; modified_base (6)..(6) cytidine is 2′-fluoro; modified_base (7)..(7) uridine is 2′-fluoro; modified_base (8)..(8) gm) [ARC128, reference compound]
effect on tumor vasculature (confocal images) (Lewis lung carcinoma): did not affect the tumor vasculature | migration of RPE cells (PDGF BB [1]; [5]): no activity | migration of RPE cells (PDGF BB [1]; 96 well format): did not affect migration

5′-[40 K PEG]-(SEQ ID NO:1)-HEG-(SEQ ID NO:2)-HEG-(SEQ ID NO:3)-3′-dT-3′ (chain 1 CAGGCUACG; chain 2 CGTAGAGCAUCA; chain 3 TGATCCUG; piece 1: 2'-fluoro at 6, 8, 2'-O-methyl at 9, 5' {PEG40k}, 3' [HEG], other sugars and backbone not given here; piece 2: 2'-O-methyl at 5, 7, 12, 2'-fluoro at 10, 11, 3' [HEG], other sugars and backbone not given here; piece 3: 2'-fluoro at 5, 6, 7, 2'-O-methyl at 8, 3' [invdT], other sugars and backbone not given here) [ARC127]
proliferation rate of U87 cells (MTT assay) (U87 glioblastoma cells): no effect on proliferation rate | occurrence of three dimensional cell clusters (U87 glioblastoma cells; 50 ng/ml PDGF-BB plus ARC127): reduced the occurrence of clusters to background level | IC50 (PDGF): ≤ 2 nM | concentration reducing the Luciferase signal to no mitogen levels (PDGF): 3 nM | efficacy of irinotecan (rate of tumor growth) ([2]; Experiment 2: ARC127 50 mg/kg IP once daily + irinotecan 150 mg/kg weekly vs irinotecan alone): enhanced the efficacy of irinotecan treatment | dose-limiting side effects ([2]; in vivo experiments): not evident | active aptamer in plasma (PDGF BB [3]): present and active | migration of RPE cells (PDGF BB [1]; [5]): inhibits the effects of 5 nM PDGF-BB | migration of RPE cells (PDGF BB [1]; 96 well format): reduced migration levels to background | AUC ([4]; IP, 10 mg/kg in mice): 143605.5 nM·h | MRT ([4]; IP, 10 mg/kg in mice): 11.231 h | tmax ([4]; IP, 10 mg/kg in mice): 8 h | Cmax [4, 6]: 61 µM | MRT [4, 6]: 5.08 h | Vs [4, 6]: 0.1 mL/kg | AUC ([4]; IV, 10 mg/kg in mice): 229686.8 nM·h | MRT ([4]; IV, 10 mg/kg in mice): 6.573 h | tmax ([4]; IV, 10 mg/kg in mice): 2 h | plasma concentration at 24 hrs post-dose ([4]; IV, IP or SC, 10 mg/kg in mice): ~1 | AUC ([4]; SC, 10 mg/kg in mice): 55030.91 nM·h | MRT ([4]; SC, 10 mg/kg in mice): 16.632 h | tmax ([4]; SC, 10 mg/kg in mice): 8 h | systemic bioavailability, F ([4]; intraperitoneal (IP), 10 mg/kg in mice): ~63% | systemic bioavailability, F ([4]; subcutaneous (SC), 10 mg/kg in mice): ~24%
